Among the test systems are K-562 leukemia; MCF7 breast; SN12C renal; NCI-H226 lung; BT-549 breast; HL-60(TB) leukemia; 786-0 renal; EKVX NSCLC; NCI-H23 lung; UACC-62 melanoma; HCT-15 colon; U251 CNS; HS 578T breast; OVCAR-3 ovarian; SF-295 CNS.
What all share (experiment): DTP human tumour cell line panel, 48 h

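Growth conditions: 96-well plates. Treatment: test compound, 48 hours, 5 concentrations. Analysis: linear interpolation between bracketing concentrations; unreached endpoints set to highest concentration. TGI denotes the concentration required for complete inhibition of growth.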

The term TGI denotes the concentration at which net growth stops. A lower TGI goes with greater sensitivity of the cells. `Clc1ccc2c(c1)CC1C[N+]3=C(CCCCC3)C1=C2` (stereo not given): the TGI with K-562 leukemia, with MCF7 breast, with SN12C renal, in the test with NCI-H226 lung, in the test with BT-549 breast and in the test on HL-60(TB) leukemia was greater than 100 µM each time. Also, the TGI in the test with 786-0 renal, with EKVX NSCLC, in the test with NCI-H23 lung, with UACC-62 melanoma, in the test on HCT-15 colon and in the test on U251 CNS was greater than 100 µM in each case. In addition, the TGI in the test on HS 578T breast, with OVCAR-3 ovarian and in the test on SF-295 CNS was greater than 100 µM throughout.

Regarding `CC(C)NC(=O)OCc1c(COC(=O)NC(C)C)c(-c2cc[n+](COC(=O)Cc3ccccc3)cc2)n2c1CCC2`, the TGI in the test with K-562 leukemia, in the test with MCF7 breast, with SN12C renal, with NCI-H226 lung, in the test with BT-549 breast and with HL-60(TB) leukemia was greater than 100 µM each time. In addition, the TGI with 786-0 renal, with EKVX NSCLC, with NCI-H23 lung, in the test with UACC-62 melanoma, in the test with HCT-15 colon and in the test on U251 CNS was greater than 100 µM in each case. For the same compound, the TGI with HS 578T breast, in the test on OVCAR-3 ovarian and with SF-295 CNS was greater than 100 µM each time.

As to `c1cc2cc(Cc3ccc4[nH]ccc4c3)ccc2[nH]1`, the TGI was greater than 100 µM in the test with K-562 leukemia; 32.3 µM in the test on MCF7 breast; 31.7 µM with SN12C renal; 34.2 µM in the test on NCI-H226 lung; 45.8 µM in the test on BT-549 breast; 54.4 µM with HL-60(TB) leukemia. In addition, the TGI in the test on 786-0 renal worked out at 33.6 µM; with EKVX NSCLC, 41.7 µM; in the test on NCI-H23 lung, 39.8 µM; with UACC-62 melanoma, 38.9 µM; in the test on HCT-15 colon, 28 µM; in the test on U251 CNS, 38.5 µM. Moreover, the TGI worked out at 66.6 µM with HS 578T breast, 32.9 µM in the test with OVCAR-3 ovarian and 78.9 µM with SF-295 CNS.

Take `O=C(NCCCN1CCN(CCCNC(=O)c2cc(-c3ccccc3)nc3ccccc23)CC1)c1cc(-c2ccccc2)nc2ccccc12`: the TGI in the test on K-562 leukemia is 34.2 µM; in the test with MCF7 breast it was 53.5 µM; in the test on SN12C renal, 43 µM; with NCI-H226 lung it was greater than 65.3 µM; in the test on BT-549 breast, 51.1 µM; with HL-60(TB) leukemia, greater than 51.8 µM. Also, the total growth inhibition concentration (TGI) was 21.5 µM in the test with 786-0 renal; 51.5 µM with EKVX NSCLC; greater than 100 µM in the test with NCI-H23 lung; 37.5 µM in the test on UACC-62 melanoma; greater than 100 µM with HCT-15 colon; 30.7 µM in the test with U251 CNS. In addition, the TGI in the test on HS 578T breast is 37.1 µM; in the test with OVCAR-3 ovarian it was greater than 53.6 µM; with SF-295 CNS it was 31.6 µM.

In the case of `O=C(O)c1ccccc1/C=N\N(CCO)C1=NCCN1`, the TGI with K-562 leukemia, with MCF7 breast, in the test on SN12C renal, in the test with NCI-H226 lung, with BT-549 breast and in the test on HL-60(TB) leukemia was greater than 100 µM each time. The TGI in the test on 786-0 renal, in the test with EKVX NSCLC, with NCI-H23 lung, with UACC-62 melanoma, with HCT-15 colon and in the test with U251 CNS was greater than 100 µM throughout. For the same compound, the concentration for total growth inhibition (TGI) with HS 578T breast, in the test with OVCAR-3 ovarian and with SF-295 CNS was greater than 100 µM in each case.

In the case of `Cc1c2c(n3c(nc4ccccc43)c1C#N)NCC2`, the TGI with K-562 leukemia, in the test on MCF7 breast, in the test on SN12C renal, with NCI-H226 lung, in the test with BT-549 breast and in the test with HL-60(TB) leukemia was greater than 10 µM in each case. Further, the TGI with 786-0 renal, in the test on EKVX NSCLC, with NCI-H23 lung, in the test on UACC-62 melanoma, in the test with HCT-15 colon and in the test on U251 CNS was greater than 10 µM throughout. Besides, the TGI in the test with HS 578T breast, in the test with OVCAR-3 ovarian and in the test with SF-295 CNS was greater than 10 µM throughout.

As for `CC(C)(C)c1cc(OCc2n[nH]c(=S)n2N)c(Cl)cc1OCc1n[nH]c(=S)n1N`, the TGI with K-562 leukemia was greater than 100 µM; in the test with MCF7 breast it was greater than 100 µM; in the test with SN12C renal, 94 µM; in the test on NCI-H226 lung, greater than 100 µM; with BT-549 breast it was greater than 100 µM; with HL-60(TB) leukemia, 58.5 µM. The total growth inhibition concentration (TGI) in the test on 786-0 renal is greater than 100 µM; in the test on EKVX NSCLC it was greater than 100 µM; in the test with NCI-H23 lung it was greater than 100 µM; with UACC-62 melanoma, 50.3 µM; in the test on HCT-15 colon, greater than 100 µM; with U251 CNS, greater than 100 µM. Moreover, the TGI in the test with HS 578T breast, in the test with OVCAR-3 ovarian and in the test on SF-295 CNS was greater than 100 µM in each case.

As to `CCOC(=O)Cc1ccc(Nc2nc3cc(F)c(F)cc3nc2C(=O)OCC)cc1`, the TGI in the test with K-562 leukemia, in the test with MCF7 breast, in the test on SN12C renal, with NCI-H226 lung, in the test on BT-549 breast and with HL-60(TB) leukemia was greater than 100 µM in each case. Besides, the TGI is greater than 100 µM in the test with 786-0 renal; 56.4 µM in the test with EKVX NSCLC; 66.5 µM in the test with NCI-H23 lung; greater than 100 µM in the test with UACC-62 melanoma; greater than 100 µM in the test on HCT-15 colon; greater than 100 µM in the test with U251 CNS. The TGI with HS 578T breast, with OVCAR-3 ovarian and with SF-295 CNS was greater than 100 µM in each case.

Take `COc1c(N2CCCCC2)c2c(=O)c3ccccc3oc2c2c3ccccc3n(C)c12`: the TGI in the test with K-562 leukemia, in the test on MCF7 breast, in the test with SN12C renal, in the test on NCI-H226 lung, in the test with BT-549 breast and in the test with HL-60(TB) leukemia was greater than 100 µM throughout. The TGI in the test with 786-0 renal, in the test on EKVX NSCLC, with NCI-H23 lung, with UACC-62 melanoma, with HCT-15 colon and in the test on U251 CNS was greater than 100 µM each time. The TGI in the test with HS 578T breast, with OVCAR-3 ovarian and in the test on SF-295 CNS was greater than 100 µM throughout.

Source of the values: PubChem BioAssay (NCI).
